Patent US10894255B2, “Leukocyte and microparticles fractionation using microfluidics” (Nanyang Technological University, priority 2015, dated 2021)

Assays:
Format in all cases: cell-based, human
[1] = tested on: DFF-purified neutrophils rolling on E-selectin; experiment: Microfluidic neutrophil rolling assay on E-selectin-coated microchannel; details: for Neutrophil rolling speed on E-selectin: DFF-sorted neutrophils treated with glucose 30 mM, TNF-α 10 ng/mL or PMA 1 μM, shear 2 dynecm^−2, compared with healthy neutrophils, P<0.005
From the text: In another aspect, the present invention also relates to a microfluidic flow channel, wherein its inner wall is coated with E-selectin. Such channel may have a length of at least 0.1 cm. Preferably, the channel has a length of 0.5-2 cm. The width may be at least 200 μm, preferably between 350-500 μm. The channel height may be at least 40 μm, preferably between 45-75 μm and more preferably the height is 60 μm. An example to determine the rolling speed by using an E-selectin coated channel is given below. Briefly, a straight microchannel (1 cm length by 400 μm width by 60 μm height) can be coated with E-selectin (50 μg/mL, Peprotech) for 1 h at 4° C. and blocked with 0.5% BSA in PBS for 30 min at room temperature. After blocking, the channel can be connected to a syringe loaded with 0.1% BSA in PBS to prime and wash away excess E-selectin in the channel. For rolling assay, CaCl2 (20 μM, Sigma-Aldrich) can be added to the DFF-purified neutrophils to facilitate the calcium-dependent interactions of neutrophil binding and rolling on E-selectin. ˜10-20 μL of DFF-purified neutrophils (˜10^6 cells/mL) can be loaded at the inlet reservoir and the syringe can be set to withdraw at 2.6 μL/min (˜2 dynecm^−2) to initiate neutrophil rolling. Phase contrast image can be captured for 30 s at the centre of the microchannel every 0.5 s interval (total of 61 frames) at 20× magnification using MetaMorph software (Molecular Devices). […] The neutrophils can then be washed at 1000×g for 4 min and resuspended to a concentration of ˜10^6 cells/mL with 20 μM CaCl2 for rolling assay.
To study neutrophil rolling phenotype on E-selectin, a straight microchannel (1 cm (l)×400 μm (w)×60 μm (h)) with recombinant human E-selectin (50 μg/mL) was coated to simulate flow conditions in post capillary venules (˜1-10 dynecm^−2). DFF-sorted neutrophils were pumped into the channel at physiological shear conditions (2 dynecm^−2) and timelapse imaging was used to capture neutrophil rolling. A MATLAB tracking algorithm was developed to track neutrophil rolling trajectories and speed measurement for high throughput single cell analysis. […] These differences in rolling phenotypes were further investigated by measuring neutrophil PSGL-1 expression, which is known to mediate leukocyte rolling on E-selectin, as well as CD11b, a Mac-1 integrin expressed on leukocytes that supports adhesion to E-selectin.
After having established that neutrophils from T2DM patients rolled faster on E-selectin as compared to healthy subjects, it was determined if these functional differences can be associated to clinical conditions by analyzing rolling speed frequencies in T2DM patients that are higher than the average rolling speed of healthy subjects (≥5 μm/sec). […]

[2] = tested on: PSGL-1 expression on neutrophils; experiment: Flow cytometric analysis of PSGL-1 expression on healthy and treated neutrophils; details: glucose 30 mM, TNF-α 10 ng/mL or PMA 1 μM treated vs healthy neutrophils; flow cytometry
Experimental: (§1) (A) Image overlay (60× magnification) from captured cell rolling videos highlight distinct differences in rolling trajectories between healthy and TNF-α-treated neutrophils. (B) Cumulative frequency curves of neutrophil rolling speed for healthy, glucose-treated (30 mM), TNF-α-treated (10 ng/mL) and PMA-treated (1 μM) neutrophils. […] Flow cytometric analysis of (C) PSGL-1 and (D) CD11b expression on healthy and treated neutrophils. Cells were incubated with mouse APC anti-human PSGL-1 IgG2a/mouse APC IgG2a isotype and FITC mouse anti-human CD11b (activated) IgG1/FITC mouse IgG1 isotype.
(§2) To study neutrophil rolling phenotype on E-selectin, a straight microchannel (1 cm (l)×400 μm (w)×60 μm (h)) with recombinant human E-selectin (50 μg/mL) was coated to simulate flow conditions in post capillary venules (˜1-10 dynecm^−2). DFF-sorted neutrophils were pumped into the channel at physiological shear conditions (2 dynecm^−2) and timelapse imaging was used to capture neutrophil rolling. A MATLAB tracking algorithm was developed to track neutrophil rolling trajectories and speed measurement for high throughput single cell analysis. […]

[3] = tested on: CD11b expression on neutrophils; experiment: Flow cytometric analysis of CD11b expression on healthy and treated neutrophils; details: glucose 30 mM, TNF-α 10 ng/mL or PMA 1 μM treated vs healthy neutrophils; flow cytometry
Experimental: as §1, §2

Molecule	Average rolling speed of drug-treated neutrophils ([1]; DFF-purified neutrophils of healthy subjects incubated with metformin 1 mM or pravastatin 20 μM for 1 h, vs untreated controls, all paired observations, P<0.05)	Neutrophil rolling speed on E-selectin [1]	PSGL-1 expression on neutrophils [2]	Neutrophil CD11b level [3]	Neutrophil rolling trajectories on E-selectin ([1]; TNF-α-activated neutrophils vs healthy neutrophils (steady rolling in a straight path))
CN(C)C(=N)N=C(N)N [metformin]	higher than controls				
CCCCCCCCCCCCCC(=O)O[C@@H]1[C@@H](C)[C@@]2(O)[C@@H](C=C(CO)C[C@]3(O)C(=O)C(C)=C[C@@H]23)[C@@H]2C(C)(C)[C@]12OC(C)=O [PMA]		did not roll, but instead adhered firmly on E-selectin	downregulation was more significant	higher increase	
tumor necrosis factor alpha [TNF-α]		higher than healthy neutrophils	decreased		discontinuous with “flipping” motions
